Measured values as given in PMC9719539, “Single-molecule characterization of subtype-specific β1 integrin mechanics” (Nature Communications, 2022).

Columns and labels:
[1] = system: extended-open β1 integrin on BJ-5ta cells; assay: β1 integrin activation: number and density of bound AF647-12G10 Fab on biotin-PEG-cholesterol immobilized cells; format: cell-based, human
Description: Cholesterol (CLS) linked to biotin with PEG (~13 nm) immobilizes cells on neutravidin and TGT-coated surfaces. b Cell images and AF647-12G10 Fab (20 nM) signal 1 h after seeding. Scale bar, 10 µm. c–e Cell area and 12G10 Fab signal were measured 30 min after seeding (n = 43, 55, 62, 69, 21, 29; 83, 59, 83, 92, 68, 62 cells from two independent experiments). c Close-contact enclosed area of cells. […] Fluorescent Fab signal was calibrated by analyzing stepwise signal increase due to nonspecific Fab binding to surfaces outside the area imaged with cells (Supplementary Fig. 4a). e Density of 12G10 Fab for each cell. Lines show mean ± SE. Two-sided t-test for p-values. Not significant (ns), p > 0.05.
The cells were gently harvested by washing in PBS for 1 min, incubating with 0.05% trypsin for 3 min, and then neutralizing with cell culture medium (FBS 10%). […] A Nikon Eclipse Ti microscope equipped with Xenon arc lamp, Nikon perfect focus system, custom total internal reflection fluorescence microscopy (TIRFM) module, and custom reflection interference contrast microscopy (RICM) module was driven by Elements software. […] Images were recorded using an electron-multiplying charge-coupled device (EMCCD; Andor iXon 888). […]

[2] = system: BJ-5ta cells; assay: Percentage of cells producing rupture signals on RGD-12pN with or without soluble cRGDfK; format: cell-based, human; conditions: RGD-12pN (BHQ2-Cy3, 100 nM); soluble ligand 100 µM; n = 4
Text: Source data are provided as a Source Data file. […]

[3] = system: BJ-5ta cells; assay: Percentage of spread cells / cell spreading on TGT surfaces; format: cell-based, human
Description: Glass coverslips were densely PEGylated to minimize non-specific interactions such as the binding of cell-secreted extracellular matrix proteins. Coverslips cleaned by piranha etching solution (a 3:1 mixture of sulfuric acid and hydrogen peroxide) were incubated in silanization solution (UCT, 1760-24-3; 2% aminosilane and 5% acetic acid in methanol) for 30 min and reacted with a mixture of Polyethylene glycol (PEG) with and without biotin (1:19, 150 mg/ml; Laysan Bio, Biotin-PEG-SVA-5000 and MPEG-SVA-5000) for 4 h. Surfaces were washed thoroughly and dried using nitrogen gas after each step. A 3D-printed dish (PLA) or a silicon gasket (Grace Bio Labs, 103280) was attached to the coverslip to form a dish. Neutravidin (Thermo Fisher scientific, 31000; 0.4 mg/ml) was added to the dish for 10 min and washed out thoroughly. The dish was emptied and a droplet (3 µL) of TGT solution (100 nM unless specified otherwise) was placed on the coverslip for 10 min in a humid condition to locally immobilize TGT. For the lateral drift correction for time-resolved TGT rupture analysis, biotin-coated gold nanoparticles (Luna Nanotech, GNP-BIOT-100-2-04; 100 nm) were sparsely immobilized as fiducial markers. For protein ligand coating, protein (50 ug/ml in PBS) was incubated in glass bottomed imaging dishes for 1 h at RT without additional passivation.
The cells were gently harvested by washing in PBS for 1 min, incubating with 0.05% trypsin for 3 min, and then neutralizing with cell culture medium (FBS 10%). The cells were spun down and resuspended with Leibovitz’s L-15 Medium (Gibco, 21083027) supplemented with 2 g/L glucose, then seeded on the TGT surface at an approximate density of 30 cells/mm^2. For integrin inhibition experiments, cells were incubated with Fab for 5 min before seeding. For cell immobilization experiments, cells were incubated with 1 nM Cholesterol-PEG-Biotin (Nanosoft Polymers, 3084-2000) for 5 min, followed by washes by centrifugation to remove biotin in solution before seeding. The imaging area was humidified and the temperature was maintained at 37 °C. A Nikon Eclipse Ti microscope equipped with Xenon arc lamp, Nikon perfect focus system, custom total internal reflection fluorescence microscopy (TIRFM) module, and custom reflection interference contrast microscopy (RICM) module was driven by Elements software. Dark regions in RICM show where cells have closely adhered to the surface (≪300 nm gap). Nikon 10X objective (CFI60 Plan Fluor) and 60X objective (CFI60 Apochromat TIRF) with DIC filter sets were used. […] Images were recorded using an electron-multiplying charge-coupled device (EMCCD; Andor iXon 888).
Single-cell data were obtained from multiple independent sample preparations for each condition as specified. Percentage of spread cells was obtained from three independent experiments. Statistical analyses were performed using MATLAB software. Two-sided (two sample) t-test was used for two group comparisons. Each group was compared with the control group unless specified otherwise. Representative micrographs are selected from at least two independent experiments.

[4] = biological target: T1, EO state of integrin αVβ1 (Homo sapiens, UniProt P05556+P06756); assay: Intrinsic affinity for EO state of αVβ1 stabilized by 12G10 Fab; format: binding; conditions: 2 µM 12G10 Fab versus basal
T1 construct: expressed in transfected cells
Text: (§1) provided as a Source Data file.
(§2) (3 pictures or pasted objects on this page, not shown here)

[5] = biological target: T2, EO state of integrin α5β1 (Homo sapiens, UniProt P05556+P08648); assay: Intrinsic affinity for EO state of α5β1 stabilized by 12G10 Fab; format: binding; conditions: 2 µM 12G10 Fab versus basal
T2 construct: endogenous in cells; host or cells: K562 wild type
Text: as §1, §2

[6] = system: BJ-5ta fibroblasts; assay: Spreading of BJ-5ta fibroblasts on linear GRRGD-TGT (peer review file); format: cell-based, human; conditions: 100 nM, 1 h
Description: RGT-TGTs is reproduced using the linear RGD, showing that the high tension threshold for cell spreading is not an artifact of ligand cyclization.
Figure R5 | BJ-5ta fibroblasts on linear RGD ligand surfaces. Cells were seeded for one hour on TGTs conjugated […]
with a linear RGD peptide ([…]; GRRGD-TGT). GRRGD-TGT (100 nM) was immobilized on […]
PEG-passivated and neutravidin functionalized surface. GRRGD-54pN was incubated without neutravidin for control. Images (left) and cell area measured from RICM images (right) are shown. Scale bar, 10 μm. […]

[7] = biological target: integrin α5β1 (EO state); conditions: extended-open conformation; read-out: affinity for α5β1 in extended-open conformation; cited from earlier work
Text: The response of the cytoskeletal machinery is thus not predetermined by cell type, but is highly regulatable by the type of ligand outside the cell. […] Further, by using 264 the specific panels of antibodies, the authors claim that RGD-based adhesion and spreading is dominated by 265 aVb1 integrin in their RGD-dependent system.

[8] = system: integrin α5β1 on intact cells; conditions: ref Li et al., 2017; read-out: affinity to α5β1 on intact cells; cited from earlier work
Text: For inhibition studies we used a different subset of inhibitory IPI and Biogen Fabs with RGD-mimetic heavy chain CDR3 sequences (Supplementary Table 1). […] They show selectivities for αVβ1, αVβ3 and αVβ5 ranging from 160 fold to 2000 fold. […] As we show in Fig.5, even though α5β1 has the highest 316 expression level among all the RGD-binding integrins expressed on BJ-5ta cell, it could not mediate cell 317 adhesion and spreading on the cyclo- ...

T2 sequence (P08648 42-894 limits assumed): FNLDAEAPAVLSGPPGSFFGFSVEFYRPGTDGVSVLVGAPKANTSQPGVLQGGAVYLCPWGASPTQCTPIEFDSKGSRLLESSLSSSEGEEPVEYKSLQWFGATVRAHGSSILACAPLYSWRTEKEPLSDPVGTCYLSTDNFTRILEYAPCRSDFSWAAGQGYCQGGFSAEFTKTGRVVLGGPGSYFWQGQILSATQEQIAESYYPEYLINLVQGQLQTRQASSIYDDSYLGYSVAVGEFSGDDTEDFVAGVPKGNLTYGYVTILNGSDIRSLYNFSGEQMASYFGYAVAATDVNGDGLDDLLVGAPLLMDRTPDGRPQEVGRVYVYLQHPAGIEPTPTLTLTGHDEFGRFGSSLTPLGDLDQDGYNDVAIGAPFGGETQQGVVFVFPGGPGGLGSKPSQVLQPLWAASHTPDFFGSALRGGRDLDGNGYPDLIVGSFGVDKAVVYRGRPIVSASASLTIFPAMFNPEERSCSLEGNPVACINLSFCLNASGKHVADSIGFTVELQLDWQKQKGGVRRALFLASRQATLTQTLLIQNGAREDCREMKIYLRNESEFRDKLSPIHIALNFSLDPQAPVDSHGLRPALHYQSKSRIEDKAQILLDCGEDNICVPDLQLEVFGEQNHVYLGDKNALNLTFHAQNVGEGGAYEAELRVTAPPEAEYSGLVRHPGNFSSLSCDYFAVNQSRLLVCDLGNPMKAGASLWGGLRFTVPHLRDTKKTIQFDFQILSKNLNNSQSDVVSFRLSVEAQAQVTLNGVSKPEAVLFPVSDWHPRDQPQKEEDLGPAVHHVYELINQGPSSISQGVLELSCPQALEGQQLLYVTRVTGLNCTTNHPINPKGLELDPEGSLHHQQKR
T2 sequence (P08648 895-1049 partner limits assumed): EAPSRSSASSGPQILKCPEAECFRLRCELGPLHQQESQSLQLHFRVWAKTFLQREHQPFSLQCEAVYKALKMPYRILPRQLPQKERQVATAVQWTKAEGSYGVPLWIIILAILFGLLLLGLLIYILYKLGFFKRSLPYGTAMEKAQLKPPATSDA
T2 sequence (P05556 21-798): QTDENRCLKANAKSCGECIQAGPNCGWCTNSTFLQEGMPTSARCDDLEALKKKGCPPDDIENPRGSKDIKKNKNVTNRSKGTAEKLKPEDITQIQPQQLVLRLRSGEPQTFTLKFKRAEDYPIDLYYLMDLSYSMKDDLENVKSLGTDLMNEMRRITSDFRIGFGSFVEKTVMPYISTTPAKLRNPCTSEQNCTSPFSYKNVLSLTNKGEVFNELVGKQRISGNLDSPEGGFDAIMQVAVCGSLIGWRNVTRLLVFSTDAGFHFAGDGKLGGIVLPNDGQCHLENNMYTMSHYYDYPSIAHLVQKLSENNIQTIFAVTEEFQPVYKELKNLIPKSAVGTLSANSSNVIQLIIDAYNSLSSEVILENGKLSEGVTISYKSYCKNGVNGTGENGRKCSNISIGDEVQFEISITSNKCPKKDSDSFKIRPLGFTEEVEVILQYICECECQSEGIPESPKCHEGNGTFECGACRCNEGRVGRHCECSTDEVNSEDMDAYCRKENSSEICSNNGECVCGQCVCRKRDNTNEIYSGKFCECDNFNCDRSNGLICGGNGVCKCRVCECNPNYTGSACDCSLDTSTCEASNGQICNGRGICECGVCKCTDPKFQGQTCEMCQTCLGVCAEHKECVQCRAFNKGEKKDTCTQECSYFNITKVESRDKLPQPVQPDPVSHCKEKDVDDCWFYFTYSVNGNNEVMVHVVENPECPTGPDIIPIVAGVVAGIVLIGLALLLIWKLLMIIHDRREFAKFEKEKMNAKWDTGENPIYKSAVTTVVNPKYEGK
T1 sequence (P06756 31-889 limits assumed): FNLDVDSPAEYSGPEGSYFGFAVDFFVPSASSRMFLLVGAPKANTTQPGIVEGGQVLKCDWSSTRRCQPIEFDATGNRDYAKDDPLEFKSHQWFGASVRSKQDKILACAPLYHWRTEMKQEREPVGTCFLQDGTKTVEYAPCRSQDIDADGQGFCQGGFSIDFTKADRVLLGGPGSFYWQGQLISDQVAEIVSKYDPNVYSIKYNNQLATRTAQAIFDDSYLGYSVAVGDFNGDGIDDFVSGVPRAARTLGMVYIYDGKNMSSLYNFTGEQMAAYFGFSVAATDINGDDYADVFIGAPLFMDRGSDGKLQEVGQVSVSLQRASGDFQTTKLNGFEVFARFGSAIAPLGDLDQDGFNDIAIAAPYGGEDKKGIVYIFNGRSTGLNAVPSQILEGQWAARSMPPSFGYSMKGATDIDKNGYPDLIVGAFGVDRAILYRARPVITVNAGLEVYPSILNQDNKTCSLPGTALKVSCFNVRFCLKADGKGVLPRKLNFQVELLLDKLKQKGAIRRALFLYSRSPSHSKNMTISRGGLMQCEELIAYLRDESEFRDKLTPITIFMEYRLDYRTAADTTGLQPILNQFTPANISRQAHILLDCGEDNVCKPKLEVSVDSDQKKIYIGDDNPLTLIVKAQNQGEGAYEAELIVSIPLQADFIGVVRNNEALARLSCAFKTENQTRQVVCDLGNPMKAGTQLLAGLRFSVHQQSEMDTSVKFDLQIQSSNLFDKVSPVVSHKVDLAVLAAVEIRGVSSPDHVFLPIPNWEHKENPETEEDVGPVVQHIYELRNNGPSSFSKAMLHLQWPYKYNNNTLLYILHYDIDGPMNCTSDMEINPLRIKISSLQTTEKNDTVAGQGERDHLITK
T1 sequence (P06756 891-1048 partner limits assumed): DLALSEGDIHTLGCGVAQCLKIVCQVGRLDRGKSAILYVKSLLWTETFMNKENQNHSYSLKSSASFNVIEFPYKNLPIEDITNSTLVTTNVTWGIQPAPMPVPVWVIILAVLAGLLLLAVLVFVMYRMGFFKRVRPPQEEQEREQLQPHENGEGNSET
T1 sequence (P05556 21-798): as the sequence (P05556 21-798) above

Compound: N=C(N)NCCC[C@@H]1NC(=O)[C@H](CCCCN)NC(=O)[C@@H](Cc2ccccc2)NC(=O)[C@H](CC(=O)O)NC(=O)CNC1=O [cRGDfK, cyclo[Arg-Gly-Asp-D-Phe-Lys]]
- force needed for activation of β1 integrin to high affinity state [1]: less than 12 pN
- rupture signal with soluble cRGDfK (in words) [2]: No cellproduced a significant rupture signal
- tension threshold for cell spreading ([3]; 1 h, nominal Ttol): > 33 pN
- spread cells (fraction), sheet 1c ([3]; TGT 1 nM): 0.00565
- spread cells (fraction), sheet 1c ([3]; TGT 3 nM): 0.03764
- spread cells (fraction), sheet 1c ([3]; TGT 10 nM): 0.4242
- spread cells (fraction), sheet 1c ([3]; TGT 30 nM): 0.8968
- spread cells (fraction), sheet 1c ([3]; TGT 100 nM): 0.9524
- Spread cells on TGT, 12pN ([3]; Ttol 12pN, 1 h, mean, SE in own column, n = 3 independent experiments, given as fraction): 0.00901
- Spread cells on TGT, 23pN ([3]; Ttol 23pN, 1 h, mean, n = 3, given as fraction): 0.05
- Spread cells on TGT, 33pN ([3]; Ttol 33pN, 1 h, mean, n = 3, given as fraction): 0.0778
- Spread cells on TGT, 43pN ([3]; Ttol 43pN, 1 h, mean, n = 3, given as fraction): 0.8932
- Spread cells on TGT, 54pN ([3]; Ttol 54pN, 1 h, mean, n = 3, given as fraction): 0.9524
- EO affinity over basal affinity, αVβ1 [4]: 60 fold
- EO affinity over basal affinity, α5β1 [5]: 7000 fold

Compound: GRRGDLATIHGGK [GRRGD-TGT]
- spreading on linear RGD-TGT (in words) [6]: no spreading for weak TGTs, with tension tolerance below 40 pN

Compound: cyclic-ACRGDGWCGK (disulfide)
- Kd [7]: 0.0022 ± 0.0005 µM

Compound: fibronectin
- Kd [8]: 1.1 µM
